Laboratory results: patent US8975234B2, “Anti-bacterial infection, inflammation, and leukemia composition and use thereof” (priority 2011, dated 2015)

Columns and labels:
[1] = system: human embryonic kidney cell line HEK 293; experiment: Cell viability assay (alamarBlue); type: cell-based; conditions: 40 μg/mL, 24 hours
Protocol: (§1) Cell viability was measured using alamarBlue. For cell viability assays, human embryonic kidney cell line HEK 293 and human hepatoma cell line Hep G2 were plated 180 μL in each well on a 96-well plate (for HEK 293, at a density of about 10,000 cells/well; for Hep G2, at a density of about 7500 cells/well). The cells were grown overnight (16˜18 hours) and left to attach. After overnight incubation, 20 μL of Tellimagrandin II was added to give final concentrations of 0, 20, 30, 40 and 50 μg/mL. The cultures with 0 μg/mL Tellimagrandin II and without adding additional drug (medium only) were as controls. The cells are then incubated in a 5% CO2, 37° C. incubator for 24 hours. After 24 hours, 100 μL of alamarBlue was added to each well, and cultured in a 5% CO2, 37° C. incubator for 4 hours. Absorbance was monitored at 570 nm and 600 nm and cell viability was determined.

[2] = system: human hepatoma cell line Hep G2; experiment: Cell viability assay (alamarBlue); type: cell-based; conditions: 40 μg/mL, 24 hours
Protocol: as §1

[3] = system: mouse macrophage cell line RAW264.7; experiment: Cell viability assay (alamarBlue); type: cell-based; conditions: 50 μg/mL or lower doses, 24 hours
Protocol: AlamarBlue reagent was used to assess cell viability. RAW264.7 cells (2×10^4 in 200 μL of medium) were seeded on the 96-well plate. After overnight incubation, cells were serum starved in DMEM medium containing 2% Fetal Bovine Serum (FBS) for 3 hours. There were several groups: cells without DMSO or Tellimagrandin II treatment (controls); cell treated with DMSO (control); cells treated with Tellimagrandin II with different concentrations (10, 25, 50, 75 and 100 μM, diluted in DMSO) (test groups). Each group was determined in duplicate.
After 24 hours, the cell medium was removed and discarded, and the cells were resuspended with 180 μL of fresh culture medium. Each cell suspension was added with 20 μL alamarBlue. The plate was then placed in incubator for another 4 hours. After incubation, the absorbance of the medium was measured at 570 and 600 nm, and cell viability was analyzed by using the following formula:
[formula] • O1: molar extinction coefficient (E) of oxidized alamarBlue at 570 nm • O2: molar extinction coefficient (E) of oxidized alamarBlue at 600 nm • A1: absorbance of test wells at 570 nm • A2: absorbance of test wells at 600 nm • P1: absorbance of positive growth control well at 570 nm • P2: absorbance of positive growth control well at 600 nm

K-562 cells [4] = experiment: Cell cycle analyses by flow cytometry; type: cell-based, human; conditions: 0-50 μM
Protocol: K-562 cells were plated in 15 cm dish at a density of 5×10^5 cells/mL (15 mL) and incubated at 37° C. with 5% CO2 for 16˜18 hours. Cells were collected and centrifuged at 700 rpm for 3 minutes at room temperature, and resuspended in culture medium containing 0.04% fetal bovine serum and 8 mM L-glutamine. Then, cells were incubated at 37° C. with 5% CO2 for 16˜18 hours.
Collected above cells and plated in 3 cm dishes at an initial density of 5×10^5 cells/mL (3 mL). Cells were treated with Tellimagrandin II to final concentrations of 0, 10, 20, 30, 40 and 50 μM, and then incubated at 37° C. with 5% CO2 for 12 and 24 hours.
Cells were centrifuged at a speed of 700 rpm for 5 min at 4° C. and washed once with PBS. Cells were fixed by drop-wise addition of 70% ethanol into the cell suspension. After 16˜18 hours, the ethanol-suspended cells were centrifuged at a speed of […] for 5 minutes at 4° C. and the ethanol decanted thoroughly. Cells were resuspended in PBS containing RNase A (10 μg/mL) and 1% Triton X-100 and incubated at 37° C. in a 5% CO2 incubator for 30 minutes to 1 hour. For propidium iodide (PI) staining, cells were centrifuged at 3,500 rpm for 5 minutes at room temperature and resuspended in 600 μL PBS. 25 μL of PI (20 μg/mL) solution was added to the mixture and incubated at room temperature in the dark for 1 hour. […]

K-562 cells [5] = experiment: DNA ladder test; type: cell-based, human; conditions: 48 hours, different concentrations
Protocol: K-562 cells treated with Tellimagrandin II were collected for electrophoresis to identify any DNA fragmentation.
A total of 3 mL cell solution at the concentration of 1×10^6 K-562 cells per mL was cultured with 6 cm cell culture plates in an incubator supplied with 5% CO2 at 37° C. for 30 minutes so that cells could adapt to the environment. Tellimagrandin II solutions of different concentrations were added by order so that the final concentrations are 0, 20, 30, 40, 50 and 60 μM respectively. The solution was placed in incubator with 5% CO2 at 37° C. for 48 hours before being centrifuged at 2,500 rpm at 4° C. for 5 minutes. After removing the supernatant, it's rinsed by PBS once. Then, cell lysis buffer 100 μL (1% NP-40 dissolved in […], pH 8.0) was added and the solution was shaken at high speed for 10 seconds.
The solution was centrifuged at 3,500 rpm for 5 minutes before 90 μL supernatant was collected and mixed properly with SDS solution 10 μL. RNase A (4 mg/mL) 50 μL was added into the mixed solution then placed in water bath at 56° C. for one hour to remove RNA. Proteinase K (10 mg/mL) 30 μL was then added before another one hour in the water bath at 56° C. to remove protein. […]

In the case of `O=C(OC1O[C@@H]2COC(=O)c3cc(O)c(O)c(O)c3-c3c(cc(O)c(O)c3O)C(=O)O[C@H]2[C@H](OC(=O)c2cc(O)c(O)c(O)c2)[C@H]1OC(=O)c1cc(O)c(O)c(O)c1)c1cc(O)c(O)c(O)c1` (some centres unmarked) [Tellimagrandin II], the Cell viability [1] is reported as “at least 80%”, the Cell viability [2] is reported as “at least 80%” and the Cell viability [3] is reported as “not affected significant”. For the same compound, the “percentage of the sub-G1 and G2/M-phase cells” value (K-562 cells [4]) was “increased in Tellimagrandin II treatments dose-dependently” and the “DNA fragmentation, DNA ladder electrophoresis” value (K-562 cells [5]) was “DNA fragmentation occurred”.
